Reference: ChEMBL document CHEMBL5512654, “Discovery of novel Thymol-TPP antibiotics that eradicate MRSA persisters” (Eur J Med Chem, 2024)
Values after ≈ are worked out from the molar mass of the structure shown. Active and inactive are the calls of the source. The calls are words filed in the database; no cut-off is given here.

What was measured:
Staphylococcus aureus [1] = assay: Antibacterial activity against Staphylococcus aureus ATCC 43300 assessed as inhibition of bacterial growth measured after 18 hrs by microplate reader; type: functional; details: read-out: MIC100
Staphylococcus aureus [2] = assay: Antibacterial activity against methicillin-resistant Staphylococcus aureus USA 300 assessed as inhibition of bacterial growth measured after 18 hrs by microplate reader; type: functional; details: read-out: MIC100
Staphylococcus aureus [3] = assay: Antibacterial activity against methicillin-resistant Staphylococcus aureus USA 3390 assessed as inhibition of bacterial growth measured after 18 hrs by microplate reader; type: functional; details: read-out: MIC100
Escherichia coli [4] = assay: Antibacterial activity against Escherichia coli ATCC 25922 assessed as inhibition of bacterial growth measured after 18 hrs by microplate reader; type: functional; details: read-out: MIC100
Escherichia coli [5] = assay: Antibacterial activity against Escherichia coli 53328 assessed as inhibition of bacterial growth measured after 18 hrs by microplate reader; type: functional; details: read-out: MIC100
Pseudomonas aeruginosa [6] = assay: Antibacterial activity against Pseudomonas aeruginosa ATCC 27853 assessed as inhibition of bacterial growth measured after 18 hrs by microplate reader; type: functional
Pseudomonas aeruginosa [7] = assay: Antibacterial activity against Pseudomonas aeruginosa 535 assessed as inhibition of bacterial growth measured after 18 hrs by microplate reader; type: functional
Klebsiella pneumoniae [8] = assay: Antibacterial activity against Klebsiella pneumonia ATCC 700603 assessed as inhibition of bacterial growth measured after 18 hrs by microplate reader; type: functional
Klebsiella pneumoniae [9] = assay: Antibacterial activity against Klebsiella pneumonia 3026 assessed as inhibition of bacterial growth measured after 18 hrs by microplate reader; type: functional
Acinetobacter baumannii [10] = assay: Antibacterial activity against Acinetobacter baumannii ATCC 19606 assessed as inhibition of bacterial growth measured after 18 hrs by microplate reader; type: functional
Acinetobacter baumannii [11] = assay: Antibacterial activity against Acinetobacter baumannii ATCC 1318 assessed as inhibition of bacterial growth measured after 18 hrs by microplate reader; type: functional
[12] = Cytotoxicity against human L02 cells incubated for 72 hrs by MTT dye reduction assay; type: toxicity, cell-based
Staphylococcus aureus [13] = assay: Bactericidal activity against methicillin-resistant Staphylococcus aureus USA 3390 assessed as reduction in CFU at 1 times of MIC concentration measured for short time by time-kill kinetics assay; type: functional, organism-based
Staphylococcus aureus [14] = assay: Bactericidal activity against methicillin-resistant Staphylococcus aureus USA 3390 assessed as reduction in CFU at 4 to 8 times of MIC concentration measured after 24 hrs by time-kill kinetics assay; type: functional, organism-based
Staphylococcus aureus [15] = assay: Antibacterial activity against methicillin-resistant Staphylococcus aureus USA 3390 assessed as resistance development measured after 30 generations; type: functional, organism-based
Staphylococcus aureus [16] = assay: In vivo antibacterial efficacy in bioluminescent Staphylococcus aureus Xen29 infected in mouse topical infection model assessed as reduction in number of colonies at 8 mg/kg, sc treated 16, 24, 36, 48, […] hrs post-infection measured after 84 hrs relative to control; type: functional

SMILES	MIC (Staphylococcus aureus [1]) [µg/mL]	MIC (Staphylococcus aureus [2]) [µg/mL]	MIC (Staphylococcus aureus [3]) [µg/mL]	also measured
Cc1ccc(-c2cc(C(C)C)c(O)cc2C)cc1	8 (≈ 33.3 µM)	16 (≈ 66.6 µM)	8 (≈ 33.3 µM)	
Cc1cc(O)c(C(C)C)cc1-c1ccccc1C(=O)O	16 (≈ 59.2 µM)	8 (≈ 29.6 µM)	8 (≈ 29.6 µM)	
COc1ccc(-c2cc(C(C)C)c(O)cc2C)cc1	16 (≈ 62.4 µM)	32 (≈ 125 µM)	16 (≈ 62.4 µM)	
Cc1cc(O)c(C(C)C)cc1Cl [CHLOROTHYMOL]	64 (≈ 347 µM)	64 (≈ 347 µM)	64 (≈ 347 µM)	
Cc1cc(OC(=O)CCCCCC[P+](c2ccccc2)(c2ccccc2)c2ccccc2)c(C(C)C)cc1-c1ccccc1.[Br-]				MIC (Escherichia coli [4]): 8 µg/mL; MIC (Escherichia coli [5]): 8 µg/mL; MIC (Pseudomonas aeruginosa [6]; read-out: MIC100): > 64 µg/mL; MIC (Pseudomonas aeruginosa [7]; read-out: MIC100): > 64 µg/mL; MIC (Klebsiella pneumoniae [8]; read-out: MIC100): 8 µg/mL; MIC (Klebsiella pneumoniae [9]; read-out: MIC100): 8 µg/mL; MIC (Acinetobacter baumannii [10]; read-out: MIC100): 8 µg/mL; MIC (Acinetobacter baumannii [11]; read-out: MIC100): 8 µg/mL; IC50 at 72 h [12]: 18.8 µg/mL
COc1cccc(-c2cc(C(C)C)c(O)cc2C)c1	16 (≈ 62.4 µM)	16 (≈ 62.4 µM)	16 (≈ 62.4 µM)	
Cc1cc(O)c(C(C)C)cc1-c1cccc(Cl)c1	4 (≈ 15.3 µM)	8 (≈ 30.7 µM)	8 (≈ 30.7 µM)	
Cc1cc(O)c(C(C)C)cc1Br	64 (≈ 279 µM)	64 (≈ 279 µM)	32 (≈ 140 µM)	
Cc1cc(O)c(C(C)C)cc1-c1cccc(F)c1	16 (≈ 65.5 µM)	16 (≈ 65.5 µM)	16 (≈ 65.5 µM)	
Cc1cc(O)c(C(C)C)cc1-c1cccc(C(=O)O)c1	8 (≈ 29.6 µM)	8 (≈ 29.6 µM)	16 (≈ 59.2 µM)	
Cc1cc(O)c(C(C)C)cc1-c1ccncc1	128 (≈ 563 µM)	128 (≈ 563 µM)	128 (≈ 563 µM)	
Cc1cc(OC(=O)CCCCCCCCCC[P+](c2ccccc2)(c2ccccc2)c2ccccc2)c(C(C)C)cc1-c1ccccc1.[Br-]				MIC (Escherichia coli [4]): > 64 µg/mL; MIC (Escherichia coli [5]): 32 µg/mL; MIC (Pseudomonas aeruginosa [6]; read-out: MIC100): 64 µg/mL; MIC (Pseudomonas aeruginosa [7]; read-out: MIC100): > 64 µg/mL; MIC (Klebsiella pneumoniae [8]; read-out: MIC100): > 64 µg/mL; MIC (Klebsiella pneumoniae [9]; read-out: MIC100): > 64 µg/mL; MIC (Acinetobacter baumannii [10]; read-out: MIC100): > 64 µg/mL; MIC (Acinetobacter baumannii [11]; read-out: MIC100): > 64 µg/mL; IC50 at 72 h [12]: 3.13 µg/mL
O=C(O)c1cn(C2CC2)c2cc(N3CCNCC3)c(F)cc2c1=O [CIPROFLOXACIN]	2 (≈ 6.04 µM)	1 (≈ 3.02 µM)	1 (≈ 3.02 µM)	MIC (Pseudomonas aeruginosa [6]; read-out: MIC): 1 µg/mL (≈ 3.02 µM); MIC (Pseudomonas aeruginosa [7]; read-out: MIC): 1 µg/mL (≈ 3.02 µM); MIC (Klebsiella pneumoniae [8]; read-out: MIC): 0.12 µg/mL (≈ 0.362 µM); MIC (Klebsiella pneumoniae [9]; read-out: MIC): 0.06 µg/mL (≈ 0.181 µM); MIC (Acinetobacter baumannii [10]; read-out: MIC): 0.5 µg/mL (≈ 1.51 µM); MIC (Acinetobacter baumannii [11]; read-out: MIC): 1 µg/mL (≈ 3.02 µM); Activity (Staphylococcus aureus [13]): Active; Activity (Staphylococcus aureus [14]): Active; Activity (Staphylococcus aureus [15]): Active
Cc1ccc(C(C)C)c(O)c1 [THYMOL]	128 (≈ 852 µM)	128 (≈ 852 µM)	256 (≈ 1700 µM)	
Cc1cc(O)c(C(C)C)cc1-c1ccc(F)cc1	16 (≈ 65.5 µM)	16 (≈ 65.5 µM)	16 (≈ 65.5 µM)	
CN[C@H](CC(C)C)C(=O)N[C@H]1C(=O)N[C@@H](CC(N)=O)C(=O)N[C@H]2C(=O)N[C@H]3C(=O)N[C@H](C(=O)N[C@H](C(=O)O)c4cc(O)cc(O)c4-c4cc3ccc4O)[C@H](O)c3ccc(c(Cl)c3)Oc3cc2cc(c3O[C@@H]2O[C@H](CO)[C@@H](O)[C@H](O)[C@H]2O[C@H]2C[C@](C)(N)[C@H](O)[C@H](C)O2)Oc2ccc(cc2Cl)[C@H]1O				AC200 (Staphylococcus aureus [16]): Active
Cc1cc(O)c(C(C)C)cc1-c1ccccc1Cl	8 (≈ 30.7 µM)	8 (≈ 30.7 µM)	8 (≈ 30.7 µM)	
Cc1cc(O)c(C(C)C)cc1-c1ccccc1	16 (≈ 70.7 µM)	8 (≈ 35.3 µM)	16 (≈ 70.7 µM)	IC50 at 72 h [12]: 13.5 µg/mL (≈ 59.5 µM)
Cc1cc(O)c(C(C)C)cc1-c1ccc(C(F)(F)F)cc1	4 (≈ 13.6 µM)	4 (≈ 13.6 µM)	8 (≈ 27.2 µM)	
